Reference: patent publication US12157730B2, “Heteroaryl derivative, method for producing same, and pharmaceutical composition comprising same as effective component” (VORONOI INC., priority 2019, dated 2024)

Molecular target: T1, Ba/F3 cell EGFR Exon20 ins NPH (Homo sapiens, UniProt P00533, INS773NPH)
T1 construct: expressed in transfected cells; host or cells: Ba/F3
Test: Ba/F3 cell proliferation suppression, EGFR Exon20 ins NPH
Assay type: cell-based
Details: GI50 class; Ba/F3 cell line with NPH inserted at Exon20 of EGFR; 72 hours
In short: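 72 h compound exposure, 0.3 nM–50 um (12 points, 3:1 dilution in DMSO); viability by CellTiter-Glo luminescence. Ba/F3 medium: RPMI-1640, 10% FBS, 5 ng/ml IL-3, 1 ug/ml puromycin for transduced cells. GI50 vs control, n=3.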

Ba/F3 (NPH) Activity	Compound
A (GI50 < 50 nM)	C=CC(=O)Nc1cc(Nc2cc(N3OCC[C@@H]3c3ccc(F)c(F)c3)ncn2)c(OC)cc1N1CCN(CC)CC1 [compound 460, N-(5-((6-((R)-3-(3,4-difluorophenyl)isoxazolidine-2-yl)pyrimidine-4-yl)amino)-2-(4-ethylpiperazine-1-yl)-4-methoxyphenyl) acrylamide]
A (GI50 < 50 nM)	C=CC(=O)Nc1cc(Nc2cc(N3OCC[C@@H]3c3cccc(F)c3F)ncn2)c(OC)cc1N1CCC(N2CCN(C3CC3)[C@H](C)C2)CC1 [Example 176, N-(2-(4-((R)-4-cyclopropyl-3-methylpiperazine-1-yl)piperidine-1-yl)-5-((6-((R)-3-(2,3-difluorophenyl)isoxazolidine-2-yl)pyrimidine-4-yl)amino)-4-methoxyphenyl) acrylamide]
A (GI50 < 50 nM)	C=CC(=O)Nc1cc(Nc2cc(N3OCC[C@@H]3c3cc(F)cc(F)c3)ncn2)c(OC)cc1N1CCC(N2CCC(F)(F)CC2)CC1 [compound 718, N-(2-(4,4-difluoro-[1,4'-bipiperidine]-1'-yl)-5-((6-((R)-3-(3,5-difluorophenyl)isoxazolidine-2-yl)pyrimidine-4-yl)amino)-4-methoxyphenyl) acrylamide]
A (GI50 < 50 nM)	C=CC(=O)Nc1cc(Nc2cc(N3OCC[C@@H]3c3ccc(F)c(Cl)c3)ncn2)c(OC)cc1N1CCC(N2CCN(C3CC3)C(C)(C)C2)CC1 [Example 181, N-(5-((6-((R)-3-(3-chloro-4-fluorophenyl)isoxazolidine-2-yl)pyrimidine-4-yl)amino)-2-(4-(4-cyclopropyl-3,3-dimethylpiperazine-1-yl)piperidine-1-yl)-4-methoxyphenyl) acrylamide]
A (GI50 < 50 nM)	C=CC(=O)Nc1cc(Nc2cc(N3OCC[C@@H]3c3c(F)ccc(F)c3F)ncn2)c(OC)cc1N1CCC(N2CCO[C@H](C)C2)CC1 [compound 646, N-(4-methoxy-2-(4-((R)-2-methylmorpholino)piperidine-1-yl)-5-((6-((R)-3-(2,3,6-trifluorophenyl)isoxazolidine-2-yl)pyrimidine-4-yl)amino)phenyl)acrylamide]
A (GI50 < 50 nM)	C=CC(=O)Nc1cc(Nc2cc(N3OCC[C@@H]3c3cc(F)cc(F)c3)ncn2)c(OC)cc1N1C[C@H]2CCN(C)[C@H]2C1 [compound 890, N-(5-((6-((R)-3-(3,5-difluorophenyl)isoxazolidine-2-yl)pyrimidine-4-yl)amino)-4-methoxy-2-((3aR,6aR)-1-methylhexahydropyrrolo [3,4-b]pyrrole-5(1H)-yl)phenyl) acrylamide]
A (GI50 < 50 nM)	C=CC(=O)Nc1cc(Nc2cc(N3OCC[C@@H]3c3ccc(F)c(Cl)c3F)ncn2)c(OC)cc1N1CCC(N2CCN(C3CCC3)CC2)CC1 [Example 193, N-(5-((6-((R)-3-(3-chloro-2,4-difluorophenyl)isoxazolidine-2-yl)pyrimidine-4-yl)amino)-2-(4-(4-cyclobutylpiperazine-1-yl)piperidine-1-yl)-4-methoxyphenyl) acrylamide]
C (500 nM ≤ GI50 < 5000 nM)	C=CC(=O)Nc1cc(Nc2cc(N3OCC[C@H]3Cc3ccccc3)ncn2)c(OC)cc1N1CCN(C2CCN(C)CC2)CC1 [compound 974, N-(5-((6-((R)-3-benzylisoxazolidine-2-yl)pyrimidine-4-yl)amino)-4-methoxy-2-(4-(1-methylpiperidine-4-yl)piperazine-1-yl)phenyl)acrylamide]
A (GI50 < 50 nM)	C=CC(=O)Nc1cc(Nc2cc(N3OCC[C@@H]3c3cc(F)ccc3F)ncn2)c(OC)cc1N1CCN(CC)CC1 [compound 849, N-(5-((6-((R)-3-(2,5-difluorophenyl)isoxazolidine-2-yl)pyrimidine-4-yl)amino)-2-(4-ethylpiperazine-1-yl)-4-methoxyphenyl) acrylamide]
A (GI50 < 50 nM)	C=CC(=O)Nc1cc(Nc2cc(N3OCC[C@@H]3c3cc(F)ccc3F)ncn2)c(OC)cc1N1CCC(N2CCN(C(C)=O)CC2)CC1 [compound 815, N-(2-(4-(4-acetylpiperazine-1-yl)piperidine-1-yl)-5-((6-((R)-3-(2,5-difluorophenyl)isoxazolidine-2-yl)pyrimidine-4-yl)amino)-4-methoxyphenyl) acrylamide]
A (GI50 < 50 nM)	C=CC(=O)Nc1cc(Nc2cc(N3OCC[C@@H]3c3cccc(Cl)c3C)ncn2)c(OC)cc1N1CCC(N2CCC(F)(F)CC2)CC1 [compound 581, N-(5-((6-((R)-3-(3-chloro-2-methylphenyl)isoxazolidine-2-yl)pyrimidine-4-yl)amino)-2-(4,4-difluoro-[1,4'-bipiperidine]-1'-yl)-4-methoxyphenyl) acrylamide]
A (GI50 < 50 nM)	C=CC(=O)Nc1cc(Nc2cc(N3OCC[C@@H]3c3cccc(C)c3F)ncn2)c(OC)cc1N1CCC(N2CCN(C(C)=O)CC2)CC1 [compound 421, N-(2-(4-(4-acetylpiperazine-1-yl)piperidine-1-yl)-5-((6-((R)-3-(2-fluoro-3-methylphenyl)isoxazolidine-2-yl)pyrimidine-4-yl)amino)-4-methoxyphenyl) acrylamide]
A (GI50 < 50 nM)	C=CC(=O)Nc1cc(Nc2cc(N3OCC[C@@H]3c3ccc(F)c(Cl)c3F)ncn2)c(OC)cc1N1CCC(N2CCN(C(C)=O)CC2)CC1 [compound 636, N-(2-(4-(4-acetylpiperazine-1-yl)piperidine-1-yl)-5-((6-((R)-3-(3-chloro-2,4-difluorophenyl)isoxazolidine-2-yl)pyrimidine-4-yl)amino)-4-methoxyphenyl) acrylamide]
A (GI50 < 50 nM)	C=CC(=O)Nc1cc(Nc2cc(N3OCC[C@@H]3c3c(F)ccc(F)c3Cl)ncn2)c(OC)cc1N1CCC(N2CCN(C3CC3)[C@H](C)C2)CC1 [compound 935, N-(5-((6-((R)-3-(2-chloro-3,6-difluorophenyl)isoxazolidine-2-yl)pyrimidine-4-yl)amino)-2-(4-((R)-4-cyclopropyl-3-methylpiperazine-1-yl)piperidine-1-yl)-4-methoxyphenyl) acrylamide]
A (GI50 < 50 nM)	C=CC(=O)Nc1cc(Nc2cc(N3OCC[C@@H]3c3ccc(F)c(Cl)c3)ncn2)c(OC)cc1N1CCN(CC)CC1 [compound 723, N-(5-((6-((R)-3-(3-chloro-4-fluorophenyl)isoxazolidine-2-yl)pyrimidine-4-yl)amino)-2-(4-ethylpiperazine-1-yl)-4-methoxyphenyl) acrylamide]
A (GI50 < 50 nM)	C=CC(=O)Nc1cc(Nc2cc(N3OCC[C@@H]3c3cccc(F)c3)ncn2)c(OC)cc1N1CC[C@H](N(C)C)C1 [compound 839, N-(2-((S)-3-(dimethylamino)pyrolidine-1-yl)-5-((6-((R)-3-(3-fluorophenyl)isoxazolidine-2-yl)pyrimidine-4-yl)amino)-4-methoxyphenyl) acrylamide]

Compound	Ba/F3 (NPH) Activity
C=CC(=O)Nc1cc(Nc2cc(N3OCC[C@@H]3c3cc(F)cc(F)c3)ncn2)c(OC)cc1N1CCC(N2C[C@H]3CC[C@@H](C2)N3C2CC2)CC1 [Example 115, N-(2-(4-((1R,5S)-8-cyclopropyl-3,8-diazabicyclo[3.2.1]octan-3-yl)piperidine-1-yl)-5-((6-((R)-3-(3,5-difluorophenyl)isoxazolidine-2-yl)pyrimidine-4-yl)amino)-4-methoxyphenyl) acrylamide]	A (GI50 < 50 nM)
